{"source": "PubChem BioAssay AID720512", "about": "(Broad Institute, 2013)", "note": "Calls of active or inactive are those of the source. No rule for the calls is given here."}
{"target": "Toxin B (TcdB) glycohydrolase, Clostridioides difficile 630", "assay": "TcdB glycohydrolase inhibitors, dose response, biochemical, cherry-pick, plate reader (AID 720512)", "conditions": "recombinant TcdB glycohydrolase activity, at 19.5 µM (top of the series)"}
{"smiles": "Cn1c(=O)[nH]c(=O)c2c1[nH]c(=S)n2Cc1ccc(Cl)cc1", "activity change, negative = inhibition": "inactive"}
{"smiles": "COc1ccc(C)cc1NC(=O)C(OC(=O)C1=NNC(=O)CC1)c1ccccc1", "note": "(stereo not given)", "activity change, negative = inhibition": "inactive"}
{"smiles": "NC(=O)Nc1ccc(Nc2ccccc2)cc1", "activity change, negative = inhibition": "inactive"}
{"smiles": "O=C(c1ccc(N2CCOCC2)c([N+](=O)[O-])c1)N1CCN(c2ccccc2F)CC1", "activity change, negative = inhibition": "inactive"}
{"smiles": "COC(=O)Cc1ccc(NC(=S)NCc2ccc(OC)cc2)cc1", "activity change, negative = inhibition": "inactive"}
{"smiles": "O=C(C[C@@H]1CC[C@H]2[C@@H](COC[C@@H](O)CN2C(=O)c2ccccn2)O1)NC1CCC1", "activity change, negative = inhibition": "inactive"}
{"smiles": "O=c1c2ccccc2nc(/C=C/c2ccc(O)cc2)n1-c1ccccc1O", "activity change, negative = inhibition": "inactive"}
{"smiles": "Cc1nc(SCC(=O)N2CCNC2=O)c(C#N)c(C)c1C", "activity change, negative = inhibition": "inactive"}
{"smiles": "CC1CCCN(C(=S)Nc2ccc(F)cc2)C1", "note": "(stereo not given)", "activity change, negative = inhibition": "inactive"}
{"smiles": "Cc1ccc(S(=O)(=O)N2CCOCC2)cc1C(=O)NCCCN1CCCC1=O", "activity change, negative = inhibition": "inactive"}
{"smiles": "CCCNC(=O)N1CC[C@@H]2[C@H]1c1cc(-c3ccccc3)ccc1N(C)[C@H]2CO", "activity change, negative = inhibition": "inactive"}
{"smiles": "O=C(O)c1ccc(-n2nnc3ccccc32)c([N+](=O)[O-])c1", "activity change, negative = inhibition": "inactive"}
{"smiles": "O=[N+]([O-])c1ccc(/C=C/c2ccc3ccccc3n2)cc1", "activity change, negative = inhibition": "inactive"}
{"smiles": "COc1cc(-c2noc(C)c2C#CC2(O)CCCCC2)cc(OC)c1OC", "activity change, negative = inhibition": "inactive"}
{"smiles": "CCCSc1nc2c([nH]1)c(=O)n(C)c(=S)n2C", "activity change, negative = inhibition": "inactive"}
{"smiles": "COc1cc(/C=N/NC(=O)CSc2ccccn2)ccc1O", "activity change, negative = inhibition": "inactive"}
{"smiles": "CCNC(=O)C[C@H]1CC[C@@H]2[C@H](COc3ccc(NC(C)=O)cc3C(=O)N2C)O1", "activity change, negative = inhibition": "inactive"}
{"smiles": "O=C(Nc1nnc(-c2ccco2)o1)C1CC1", "activity change, negative = inhibition": "inactive"}
{"smiles": "O=C(NCc1ccccc1)[C@@H]1CCCN1C(=O)[C@@H]1CCCN1C(=O)c1cccs1", "activity change, negative = inhibition": "inactive"}
{"smiles": "COc1ccc(C(=O)OCC(=O)Nc2ccc3[nH]c(=O)[nH]c3c2)c(OC)c1OC", "activity change, negative = inhibition": "inactive"}
{"smiles": "O=C(C[n+]1ccccc1)N/N=C/c1ccc(O)cc1", "activity change, negative = inhibition": "inactive"}
{"smiles": "CC1(C)Cc2nc(Cl)c(C#N)cc2CO1", "activity change, negative = inhibition": "inactive"}
{"smiles": "COc1cc2ccccc2cc1C(=O)N/N=C/c1cccs1", "activity change, negative = inhibition": "inactive"}
{"smiles": "O=C(c1ccccc1F)N1CCN(c2ccc([N+](=O)[O-])c3cccnc23)CC1", "activity change, negative = inhibition": "inactive"}
{"smiles": "CCOC(=O)c1sc2nc(OCCN3CCOCC3)cc(C)c2c1N", "activity change, negative = inhibition": "inactive"}
{"smiles": "C=CCc1ccc(O)c(-c2ccc(O)c(CC=C)c2)c1", "activity change, negative = inhibition": "inactive"}
{"smiles": "Oc1ccc(/C=N/Nc2nc(N3CCCC3)nc(N3CCCC3)n2)cc1O", "activity change, negative = inhibition": "inactive"}
{"smiles": "CCOC(=O)c1cc([N+](=O)[O-])sc1N", "activity change, negative = inhibition": "inactive"}
{"smiles": "COC(=O)c1ccc(OC(=O)c2ccc(OC)cc2)c(OC)c1", "activity change, negative = inhibition": "inactive"}
{"smiles": "CC1(C)CC(=O)C(C=Nc2ccc(N)cc2)=C(O)C1", "activity change, negative = inhibition": "inactive"}
{"smiles": "Cc1ccc(NCCN(C)C)c2c(=O)c3cc(O)ccc3sc12", "activity change, negative = inhibition": "inactive"}
{"smiles": "Cc1cccn2c(CN(C)C3CCCc4ccccc43)c(C(=O)N3CCOCC3)nc12", "note": "(stereo not given)", "activity change, negative = inhibition": "inactive"}
{"smiles": "COc1ccc(NC(=O)C2CC(=O)N(c3ccccc3F)C2)cc1S(=O)(=O)N1CCCCC1", "note": "(stereo not given)", "activity change, negative = inhibition": "inactive"}
{"smiles": "Cc1ccc(C(=O)Nc2ccc(O)cc2C(=O)O)cc1C", "activity change, negative = inhibition": "inactive"}
{"smiles": "NS(=O)(=O)c1ccc(NC(=S)NCc2ccc3c(c2)OCO3)cc1", "activity change, negative = inhibition": "inactive"}
{"smiles": "CC1(C)CC(=O)C(C=Nc2ccc(O)cc2)=C(O)C1", "activity change, negative = inhibition": "inactive"}
{"smiles": "NC(=O)c1ccc2c(=O)c(O)c(-c3cc(Cl)c(N)c(Cl)c3)[nH]c2c1", "activity change, negative = inhibition": "inactive"}
{"smiles": "CC(C)CNC(=O)C(=O)NCC1CCCN1S(=O)(=O)c1cccs1", "note": "(stereo not given)", "activity change, negative = inhibition": "inactive"}
{"smiles": "CCCNC(=O)Nc1ccc2c(c1)C(=O)N(C)[C@H]1CC[C@H](CC(=O)NC3CCC3)O[C@@H]1CO2", "activity change, negative = inhibition": "inactive"}
{"smiles": "COc1ccc(NC(c2ccccc2)c2ccncc2)cc1", "note": "(stereo not given)", "activity change, negative = inhibition": "inactive"}
{"smiles": "CC(C)(C)N1[C@@H](CC(=O)O)c2cc(C(F)(F)F)ccc2S1(=O)=O", "activity change, negative = inhibition": "inactive"}
{"smiles": "O=S(=O)(Cc1cccc(F)c1)c1c[nH]c2ccccc12", "activity change, negative = inhibition": "inactive"}
{"smiles": "COc1cccc(C(=O)COC(=O)c2ccc(NC(=O)c3ccccc3)cc2)c1", "activity change, negative = inhibition": "inactive"}
{"smiles": "OCC1CCCN(C(=S)Nc2ccc(Nc3ccccc3)cc2)C1", "note": "(stereo not given)", "activity change, negative = inhibition": "inactive"}
{"smiles": "O=C(N/C(=C\\c1ccc(O)cc1)C(=O)N1CCCCC1)c1ccccc1", "activity change, negative = inhibition": "inactive"}
